# Where two headings read alike, the source gives them in different places.
# Legend:
# [1] = test system: cryopreserved hepatocytes
# Protocol: 1) 10 mM test compounds were provided.
# (§8) 2) 30 mM positive control stock solutions: Dissolved accurate amount of positive control compounds in dimethyl sulfoxide (DMSO).
# (§9) 3) 1000× Stock Solution: Diluted 10 mM test compounds and 30 mM positive control compounds to 1 mM and 3 mM with DMSO in 96-well plates.
# (§10) 4) 100× Dosing Solution: Diluted 1 mM test compounds and 3 mM positive control compounds to 100 μM and 300 μM dosing solutions with ACN.
# (§11) 5) Preparation of 0.5×10^6/mL cells suspension: cryopreserved cells were thawed, isolated and suspended in Incubation Medium, then diluted with pre-warmed Incubation Medium to 0.5×10^6 cells/mL.
# (§12) 6) Add 198 μL of pre-warmed cell suspensions in 96-well plates.
# (§13) 7) Preparation of Quenching Plate: Transfer 125 μL of stop solution in a set of pre-labeled 96-well plates.
# (§14) 8) Spike 2 μL dosing solution to each well of 96-well plates in duplicate.
# (§15) 9) For TO Samples, mix to achieve a homogenous suspension for about 1 min, then immediately transfer 25 μL of each sample into well containing 125 μL of ice-cold stop solution followed by mixing.
# (§16) 10) Incubate all plates at 37° C. in a 95% humidified incubator at 5% CO2 to start the reactions with constant shaking.
# (§17) 11) At 15, 30, 60 and 90 min, mix samples and then transfer 25 μL of each sample at each time point to well containing 125 μL of ice-cold stop solution followed by mixing.
# (§18) 12) Medium Control (MC) sample plates (labeled as TO-MC and T90-MC) are prepared in the same way as cell incubation except that medium was used instead of cell suspension.
# (§19) 13) At each corresponding time point, stop the reactions by removing the plates from incubator and mixing with 125 μL of ice-cold stop solution.
# (§20) 14) Vortex the plates immediately on a plate shaker at 600 rpm for 10 minutes. Then, centrifuge all sample plates at 3220×g for 20 min at 4° C.
# (§21) 15) After centrifugation, 80 μL/well of supernatant in the sample plates are transferred to another set of pre-labeled 96-well plates which containing 240 μL of ultra pure water according to the plate map.
# (§22) 16) Analytical plates are sealed and store at 4° C. until LC-MS/MS analysis.
# (§23) The remaining percents of test articles after incubation were calculated by the follow equations:
# (§24) Use the following equation of first order kinetics to calculate T1/2 and CLint:
# [2] = mouse, microsomes
# CYP3A4 = CYP3A4 (Homo sapiens (Human), UniProt P08684); test: CYP isoforms inhibitory assay in human liver microsome, CYP3A4
# Protocol: (§1) CYP isoforms inhibitory activities of test compounds were measured in human liver microsome.
# (§2) Preparation details of these substrates are given in below table. The substrate stock solution was stored in a −20° C. freezer. Prior to use, the substrate stock solution was removed from the freezer and allowed to rise to room temperature. Then the substrate stock solution was mixed on a whirly mixer for 30 seconds.
# (§3) HLMs were stored in a −80° C. freezer. Prior to use, the pooled HLM was removed from the freezer and allowed to thaw in a 37° C. water bath and then stored on wet ice.
# (§4) The positive control inhibitors and their concentrations used by each isozyme are summarized below.
# (§5) All samples were incubated in a 37° C. water bath, with three parallels for each concentration of the test compound and two parallels for each concentration of the positive control inhibitor. 100 μL of microsome working solution was taken and added 2 μL of the test product or positive inhibitor working solution. 2 μL solvents was added to the solvent control, and put in a water bath to pre-incubate for 10 min. After pre-incubation, 98 μL of NADPH regeneration solution was added to all samples to start the reaction. Then the mixture was put back in the water bath and incubated for a certain period of time.
# (§6) The reaction was quenched by 200 μL stop solution. […]
# (§7) IC50 values were determined using 3- or 4-parameter logistic equation.
# [3] = test system: cryopreserved hepatocytes; remark: listed apart in the source
# CYP2D6 = CYP2D6 (Homo sapiens (Human), UniProt P10635); test: CYP isoforms inhibitory assay in human liver microsome, CYP2D6; conditions: read-out: IC50 CYP2D6, substrate dextromethorphan
# Protocol: as §1, §2, §3, §4, §5, §6, §7
# [4] = Hepatic metabolic stability (HMS) assay, dog hepatocytes; conditions: dog, cryopreserved hepatocytes
# in vitro [5] = conditions: cynomolgus monkey, microsomes
# in vitro [6] = conditions: dog, microsomes
# [7] = Hepatic metabolic stability (HMS) assay, human hepatocytes; conditions: human, cryopreserved hepatocytes
# Protocol: 1) 10 mM test compounds were provided.
# as §8, §9, §10, §11, §12, §13, §14, §15, §16, §17, §18, §19, §20, §21, §22, §23, §24
# [8] = Liver microsome metabolic stability (LMS) assay, dog
# [9] = Liver microsome metabolic stability (LMS) assay, human
# Chain of CYP3A4 (P08684 whole entry, canonical isoform): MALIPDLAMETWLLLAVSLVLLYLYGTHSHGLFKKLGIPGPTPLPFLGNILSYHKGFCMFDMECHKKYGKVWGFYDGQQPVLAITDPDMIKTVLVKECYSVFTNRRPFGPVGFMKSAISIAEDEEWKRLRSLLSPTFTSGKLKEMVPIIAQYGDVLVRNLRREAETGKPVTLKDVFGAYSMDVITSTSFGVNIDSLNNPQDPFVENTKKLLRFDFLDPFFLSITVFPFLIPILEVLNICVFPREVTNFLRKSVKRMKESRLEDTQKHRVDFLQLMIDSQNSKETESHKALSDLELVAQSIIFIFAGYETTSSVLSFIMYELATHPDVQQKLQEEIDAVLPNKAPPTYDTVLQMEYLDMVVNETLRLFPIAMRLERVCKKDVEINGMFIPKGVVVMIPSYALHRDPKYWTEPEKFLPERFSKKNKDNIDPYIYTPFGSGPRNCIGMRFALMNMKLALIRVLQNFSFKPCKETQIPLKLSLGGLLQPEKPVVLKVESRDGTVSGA
# Chain of CYP2D6 (P10635 whole entry, canonical isoform): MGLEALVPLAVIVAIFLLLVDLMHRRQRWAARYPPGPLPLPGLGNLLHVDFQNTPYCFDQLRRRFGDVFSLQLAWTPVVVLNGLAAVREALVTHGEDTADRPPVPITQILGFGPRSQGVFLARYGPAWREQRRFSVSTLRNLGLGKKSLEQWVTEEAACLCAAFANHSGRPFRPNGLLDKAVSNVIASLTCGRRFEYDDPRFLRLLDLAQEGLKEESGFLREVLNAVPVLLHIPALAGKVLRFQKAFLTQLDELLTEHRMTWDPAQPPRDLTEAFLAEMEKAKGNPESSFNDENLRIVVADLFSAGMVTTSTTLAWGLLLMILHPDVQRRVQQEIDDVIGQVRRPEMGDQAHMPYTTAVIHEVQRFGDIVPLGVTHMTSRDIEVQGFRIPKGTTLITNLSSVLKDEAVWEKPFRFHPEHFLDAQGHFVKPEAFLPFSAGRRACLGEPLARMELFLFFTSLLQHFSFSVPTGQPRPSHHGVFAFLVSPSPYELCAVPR
compound,measurement,setting,value
CN(C(=O)c1ccc2nc(N)c3cncn3c2c1)C1COc2cc(C(F)(F)F)ccc21 (centres unmarked) [Compound 17],CLint (liver) H,[1],20.2 mL/min/kg
same,CLint (hep) H,[1]; human,7.3 μL/min/10^6
same,T1/2 (hepatocytes) H,[1]; human,3.18 h
same,"T1/2 of LMS, M",[2],1.61 h
same,IC50,CYP3A4; microsomes,27.3 µM
same,IC50,"CYP3A4; read-out: IC50 CYP3A4 (midazolam), human liver microsome, substrate midazolam",> 30 µM
same,CLint (liver) C,[3],62.0 mL/min/kg
same,CLint (hep) C,[3]; cynomolgus monkey,17.2 μL/min/10^6
same,T1/2 (hepatocytes) C,[3]; cynomolgus monkey,1.34 h
same,IC50,CYP2D6,> 30 µM
CN(C(=O)c1ccc2nc(N)c3cncn3c2c1)[C@@H]1COc2cc(C(F)(F)F)ccc21 [Compound 12],half-life at 1 μM,[4],2.12 h
same,half-life at 1 μM,in vitro [5],0.935 h
same,half-life at 1 μM,in vitro [6],> 2.42 h
same,half-life at 1 μM,[7],1.84 h
CN(C(=O)c1cc2c(cn1)nc(N)c1cncn12)C1CC(F)(F)c2cc(C(F)(F)F)ccc21 (centres unmarked) [Compound 24],CLint (mic) D,[8]; dog liver microsome,<9.6 µL/min/mg
same,"T1/2 of LMS, D","[8]; dog liver microsome 0.5 mg protein/mL, 1 μM, NADPH",>2.42 h
same,CLint (liver) D,"[8]; dog liver microsome, scaled to liver",<13.8 mL/min/kg
same,CLint (mic) H,[9]; human liver microsome,<9.6 µL/min/mg
same,"T1/2 of LMS, H","[9]; human liver microsome 0.5 mg protein/mL, 1 μM, NADPH",>2.42 h
same,CLint (liver) H,"[9]; human liver microsome, scaled to liver",<8.6 mL/min/kg

# Source: patent publication US20240262835A1, “PRMT5 INHIBITING COMPOUNDS AND USES THEREOF” (ANTENGENE DISCOVERY LIMITED, priority 2023, published 2024)
